The values that follow come from patent US20060063759A1, “Tricyclic steroid hormone nuclear receptor modulators” (priority 2002, published 2006).

SMILES strings stand for the structures.

The target of one experiment is T1, glucocorticoid receptor (Homo sapiens, UniProt P04150).
T1 construct: containing 50-200 ug of A549 cell extract and 1.86 nM [^3H]-dexamethasone; host or cells: A549 human lung epithelial cells (sonicated cell extract)
T1 sequence (P04150 1-777): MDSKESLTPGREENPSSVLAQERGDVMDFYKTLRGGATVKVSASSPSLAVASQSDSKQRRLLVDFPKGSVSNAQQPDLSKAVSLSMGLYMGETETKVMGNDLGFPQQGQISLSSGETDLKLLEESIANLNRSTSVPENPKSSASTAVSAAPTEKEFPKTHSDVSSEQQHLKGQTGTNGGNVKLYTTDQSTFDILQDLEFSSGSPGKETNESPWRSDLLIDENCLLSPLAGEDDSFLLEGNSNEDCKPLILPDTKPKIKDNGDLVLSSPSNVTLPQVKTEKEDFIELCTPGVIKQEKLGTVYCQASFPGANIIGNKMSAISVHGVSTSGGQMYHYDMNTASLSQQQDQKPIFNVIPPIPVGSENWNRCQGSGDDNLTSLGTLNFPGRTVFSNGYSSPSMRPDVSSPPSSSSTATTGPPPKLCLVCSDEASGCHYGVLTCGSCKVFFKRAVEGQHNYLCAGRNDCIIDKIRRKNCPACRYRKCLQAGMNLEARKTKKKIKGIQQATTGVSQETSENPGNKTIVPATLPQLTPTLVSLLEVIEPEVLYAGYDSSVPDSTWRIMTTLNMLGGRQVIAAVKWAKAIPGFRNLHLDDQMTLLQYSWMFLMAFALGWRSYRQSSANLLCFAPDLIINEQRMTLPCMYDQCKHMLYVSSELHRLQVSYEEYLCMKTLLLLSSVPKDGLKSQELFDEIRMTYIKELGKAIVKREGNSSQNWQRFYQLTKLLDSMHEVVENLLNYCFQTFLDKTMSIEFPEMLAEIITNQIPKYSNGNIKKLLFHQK
Put plainly: Glucocorticoid Receptor Binding Assay ([3H]-dexamethasone, A549 cell extract). The settings on record: [3H]-dexamethasone binding, read-out: GR Ki. The procedure, abridged:
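A549 cell extract (50–200 ug) incubated with 1.86 nM [3H]-dexamethasone and test compound for 16 h at 4 °C in Tris-HCl pH 7.2 buffer with glycerol and molybdate. Unbound radioligand removed by dextran-coated charcoal, then supernatant bound counts measured by scintillation.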

The next experiment concerns the target T2, human MR (Homo sapiens, UniProt P08235).
T2 construct: The full length human MR gene is cloned from a human kidney or human brain cDNA library; His tag from the pAcHLT vector (own knowledge); made in house; host or cells: Sf9 insect cells (baculovirus, pAcHLT transfer vector)
T2 sequence (P08235 1-984): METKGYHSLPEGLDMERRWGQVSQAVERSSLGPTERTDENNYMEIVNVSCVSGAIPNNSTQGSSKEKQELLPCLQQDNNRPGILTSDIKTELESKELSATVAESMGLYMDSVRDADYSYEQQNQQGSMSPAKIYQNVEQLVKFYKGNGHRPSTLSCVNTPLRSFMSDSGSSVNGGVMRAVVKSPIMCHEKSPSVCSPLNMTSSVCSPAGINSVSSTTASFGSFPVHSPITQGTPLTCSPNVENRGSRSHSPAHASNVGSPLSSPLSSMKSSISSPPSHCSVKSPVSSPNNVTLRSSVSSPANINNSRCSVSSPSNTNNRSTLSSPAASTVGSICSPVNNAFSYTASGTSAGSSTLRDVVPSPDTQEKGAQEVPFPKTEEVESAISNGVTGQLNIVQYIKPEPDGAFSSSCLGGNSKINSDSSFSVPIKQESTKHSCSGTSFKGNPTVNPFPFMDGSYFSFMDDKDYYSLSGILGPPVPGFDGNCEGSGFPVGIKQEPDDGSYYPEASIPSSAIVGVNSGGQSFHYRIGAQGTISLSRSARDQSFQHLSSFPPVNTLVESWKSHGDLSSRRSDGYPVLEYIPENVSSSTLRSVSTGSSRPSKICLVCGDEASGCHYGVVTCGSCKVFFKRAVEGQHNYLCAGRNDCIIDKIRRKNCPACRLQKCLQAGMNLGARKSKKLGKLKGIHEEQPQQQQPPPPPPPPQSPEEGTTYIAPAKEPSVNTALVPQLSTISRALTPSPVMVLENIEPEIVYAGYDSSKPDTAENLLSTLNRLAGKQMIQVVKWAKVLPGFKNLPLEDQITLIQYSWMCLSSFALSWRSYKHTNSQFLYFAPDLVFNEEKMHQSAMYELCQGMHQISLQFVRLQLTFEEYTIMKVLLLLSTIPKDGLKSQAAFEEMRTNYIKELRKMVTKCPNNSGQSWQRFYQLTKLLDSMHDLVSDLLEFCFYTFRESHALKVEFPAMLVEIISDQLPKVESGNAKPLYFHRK
As to the kind of experiment: Mineralocorticoid Receptor Binding Assay ([3H]-aldosterone). The settings on record: [3H]-aldosterone binding, human MR expressed in Sf9 cells; read-out: MR Ki. The method, boiled down: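 Lysate supernatant of Sf9 cells expressing full-length human MR (20-25 μg protein) was incubated with 0.5 nM [3H]-aldosterone and test compound in molybdate/Tris/phosphate/glycerol buffer, pH 7.5, ~16 h at 4 °C. Bound ligand was filtered and counted by scintillation; IC50 is the concentration halving [3H]-aldosterone binding.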

By Ki is commonly meant the dissociation constant of the complex between target and ligand, obtained from inhibition or displacement. As for `Cc1c(C=C2c3ccccc3CCc3ccccc32)cccc1NS(C)(=O)=O` [Example 48, N-[3-(10,11-Dihydro-dibenzo[a,d]cyclohepten-5-ylidenemethyl)-2-methyl-phenyl]-methanesulfonamide], the Ki on glucocorticoid receptor and on human MR was less than 500 nM throughout.
For `CS(=O)(=O)Nc1cc(C=C2c3ccccc3CCc3ccccc32)ccc1F` [Example 49, N-[5-(10,11-Dihydro-dibenzo[a,d]cyclohepten-5-ylidenemethyl)-2-fluoro-phenyl]-methanesulfonamide], the Ki at glucocorticoid receptor and on human MR was less than 500 nM in each case.
`CS(=O)(=O)Nc1cc(F)cc(C=C2c3ccccc3CCc3ccccc32)c1` [Example 50, N-[3-(10,11-Dihydro-dibenzo[a,d]cyclohepten-5-ylidenemethyl)-5-fluoro-phenyl]-methanesulfonamide]: the Ki on glucocorticoid receptor and on human MR was less than 500 nM each time.
For the molecule `COc1ccc(OC)c(C=C2c3ccccc3CCc3ccccc32)c1` [Example 52, 5-(2,5-Dimethoxy-benzylidene)-10,11-dihydro-5H-dibenzo[a,d]cycloheptene], the figures for the Ki on glucocorticoid receptor and at human MR were less than 10000 nM and less than 500 nM, respectively.
In the same order, the values of `Oc1cc(O)cc(C=C2c3ccccc3CCc3ccccc32)c1` [Example 54, 5-(10,11-Dihydro-dibenzo[a,d]cyclohepten-5-ylidenemethyl)-benzene-1,3-diol] are less than 500 nM and less than 500 nM.
For the molecule `Oc1cccc(C=C2c3ccccc3CCc3ccccc32)c1` [Example 57, 3-(10,11-Dihydro-dibenzo[a,d]cyclohepten-5-ylidenemethyl)-phenol], the Ki on glucocorticoid receptor and at human MR was less than 500 nM throughout.
As to `FC(F)c1ccc(C=C2c3ccccc3CCc3ccccc32)cc1` [Example 73, 5-(4-Difluoromethyl-benzylidene)-10,11-dihydro-5H-dibenzo[a,d]cycloheptene], the Ki is less than 1000 nM on glucocorticoid receptor and less than 500 nM at human MR.
For `OCc1cccc(C=C2c3ccccc3CCc3ccccc32)c1` [Example 75, [3-(10,11-Dihydro-dibenzo[a,d]cyclohepten-5-ylidenemethyl)-phenyl]-methanol] the same measures were less than 500 nM and less than 500 nM.
For `OCc1ccc(C=C2c3ccccc3CCc3ccccc32)cc1` [Example 76, [4-(10,11-Dihydro-dibenzo[a,d]cyclohepten-5-ylidenemethyl)-phenyl]-methanol] the same measures were less than 500 nM and less than 1000 nM.
For `O/N=C/c1ccccc1C=C1c2ccccc2CCc2ccccc21` [Example 77, 2-(10,11-Dihydro-dibenzo[a,d]cyclohepten-5-ylidenemethyl)-benzaldehyde oxime] the same measures were less than 500 nM and less than 500 nM.
`O/N=C/c1cccc(C=C2c3ccccc3CCc3ccccc32)c1` [Example 78, 3-(10,11-Dihydro-dibenzo[a,d]cyclohepten-5-ylidenemethyl)-benzaldehyde oxime]: the Ki on glucocorticoid receptor was less than 1000 nM; on human MR it was less than 500 nM.
In the same order, the values of `O/N=C/c1ccc(C=C2c3ccccc3CCc3ccccc32)cc1` [Example 79, 4-(10,11-Dihydro-dibenzo[a,d]cyclohepten-5-ylidenemethyl)-benzaldehyde oxime] are less than 500 nM and less than 500 nM.
For `N#Cc1ccc(C=C2c3ccccc3CCc3ccccc32)cc1` [Example 82, 4-(10,11-Dihydro-dibenzo[a,d]cyclohepten-5-ylidenemethyl)-benzonitrile] the same measures were less than 1000 nM and less than 500 nM.
For the molecule `NC(=O)c1cccc(C=C2c3ccccc3CCc3ccccc32)c1` [Example 84, 3-(10,11-Dihydro-dibenzo[a,d]cyclohepten-5-ylidenemethyl)-benzamide], the figures for the Ki at glucocorticoid receptor and on human MR were less than 10000 nM and less than 500 nM, respectively.
Consider `NC(=O)c1ccc(C=C2c3ccccc3CCc3ccccc32)cc1` [Example 85, 4-(10,11-Dihydro-dibenzo[a,d]cyclohepten-5-ylidenemethyl)-benzamide], for which the Ki on glucocorticoid receptor and on human MR was less than 500 nM each time.
For the molecule `CS(=O)(=O)Nc1cccc(C=C2c3ccccc3CCc3ccccc32)c1` [Example 90, N-[3-(10,11-Dihydro-dibenzo[a,d]cyclohepten-5-ylidenemethyl)-phenyl]-methanesulfonamide], the Ki at glucocorticoid receptor and at human MR was less than 500 nM in each case.
As for `Cc1nc(S(=O)(=O)Nc2cccc(C=C3c4ccccc4CCc4ccccc43)c2)cn1C` [Example 96, 1,2-Dimethyl-1H-imidazole-4sulfonic acid [3-(10,11-dihydro-dibenzo[a,d]cyclohepten-5-ylidenemethyl)-phenyl]-amide], the figures for the Ki at glucocorticoid receptor and on human MR were less than 10000 nM and less than 500 nM, respectively.
Take `CCCS(=O)(=O)Nc1cccc(C=C2c3ccccc3CCc3ccccc32)c1` [Example 104, Propane-1-sulfonic acid [3-(10,11-dihydro-dibenzo[a,d]cyclohepten-5-ylidenemethyl)-phenyl]-amide]: the Ki at glucocorticoid receptor and on human MR was less than 500 nM throughout.
Consider `CCCCS(=O)(=O)Nc1cccc(C=C2c3ccccc3CCc3ccccc32)c1` [Example 105, Butane-1-sulfonic acid [3-(10,11-dihydro-dibenzo[a,d]cyclohepten-5-ylidenemethyl)-phenyl]-amide], for which the Ki at glucocorticoid receptor and on human MR was less than 500 nM each time.
With `CCS(=O)(=O)Nc1ccc(C=C2c3ccccc3CCc3ccccc32)cc1` [Example 106, Ethanesulfonic acid [4-(10,11-dihydro-dibenzo[a,d]cyclohepten-5-ylidenemethyl)-phenyl]amide], the Ki on glucocorticoid receptor and on human MR was less than 500 nM in each case.
Consider `CCCS(=O)(=O)Nc1ccc(C=C2c3ccccc3CCc3ccccc32)cc1` [Example 108, Propane-1-sulfonic acid [4-(10,11-dihydro-dibenzo[a,d]cyclohepten-5-ylidenemethyl)-phenyl]-amide], for which the Ki at glucocorticoid receptor and at human MR was less than 500 nM each time.
Regarding `CCCCS(=O)(=O)Nc1ccc(C=C2c3ccccc3CCc3ccccc32)cc1` [Example 109, Butane-1-sulfonic acid [4-(10,11-dihydro-dibenzo[a,d]cyclohepten-5-ylidenemethyl)-phenyl]-amide], the inhibition constant Ki at glucocorticoid receptor and on human MR was less than 500 nM each time.
On to `CC(C)CS(=O)(=O)Nc1cccc(C=C2c3ccccc3CCc3ccccc32)c1` [Example 110, 2-Methyl-propane-1-sulfonic acid [3-(10,11-dihydro-dibenzo[a,d]cyclohepten-5-ylidenemethyl)-phenyl]-amide], for which the Ki at glucocorticoid receptor and at human MR was less than 500 nM in each case.
